# Assay results from ChEMBL document CHEMBL3102737, “Synthesis of novel pyrano[3,2-f]quinoline, phenanthroline derivatives and studies of their interactions with proteins: an application in mammalian cell imaging” (Eur J Med Chem, 2014).
# System: HeLa
# Assay: Protein binding in human HeLa cells at 1 mM incubated for 10 mins under dark by fluorescence microscopic analysis
# Type: ADME, cell-based
# Details: 1000 µM; call rule not given here
row,SMILES,PB
1,CCN1c2ccc3oc(=O)ccc3c2C(=O)CC1(C)C,Active
2,Cn1c(=O)ccc2c3c(ccc21)NC(C)(C)CC3=O,Not Active
3,CN1c2ccc3c(ccc(=O)n3C)c2C(=O)CC1(C)C,Active
4,CCN1c2ccc3c(ccc(=O)n3C)c2C(=O)CC1(C)C,Active
5,CCn1c(=O)ccc2c3c(ccc21)NC(C)(C)CC3=O,Active
6,CCn1c(=O)ccc2c3c(ccc21)N(C)C(C)(C)CC3=O,Active
7,CCN1c2ccc3c(ccc(=O)n3CC)c2C(=O)CC1(C)C,Active
8,CC1(C)CC(=O)c2c(ccc3oc(=O)ccc23)N1,Active
9,CN1c2ccc3oc(=O)ccc3c2C(=O)CC1(C)C,Not Active
